From US20090227683A1, “Compositions for Providing an Analgesic Effect to the Skin” (priority 2008, published 2009) come the findings set out here.

For test [1], the system named is Albino male CD-1 mice (scratching induced by Compound 48/80). In words: Scratching against Compound 48/80 in mice. The note with it: for effect on Compound 48/80 scratching, in words: text summary of Tables 1 and 8. The format is in vivo. The procedure:
Albino male CD-1 mice, 7-9 weeks old, were used. Testing was based on known methods (See Liebel et al., Arch Dermatol Res. 298:191-199, 2006.) Test agents were prepared at concentrations noted in Table 1 in 100% ethanol and 50 μL was applied topically to the shaved dorsal skin 30 minutes prior to induction of scratching (8 mice per treatment group). Compound 48/80 (50 μg/50 μL: w/v) was then injected inter-dermal to the dorsal area and scratches were then counted for 30 minutes.
Albino male CD-1 mice, 7-9 weeks old, were used. Testing was based on known methods (See Liebel et al., Arch Dermatol Res. 298:191-199, 2006.) Test agents were prepared in 100% ethanol and 50 uL was applied topically to the shaved dorsal skin 30 minutes prior to induction of scratching (8 mice per treatment group). Compound 48/80 (50 ug/50 uL w/v) was then injected inter-dermal to the dorsal area and scratches were then counted for 30 minutes.

The subject of test [2] is Albino male CD-1 mice (neurogenic inflammation induced by Resiniferatoxin). In words: Resiniferatoxin neurogenic inflammation model in the mouse ear (ear edema). The note with it: for inhibition of the neurogenic inflammatory response to resiniferatoxin, in words: summary of Tables 2 to 4. The format is in vivo. From the text:
Neurosensory inflammation, also referred to as neurogenic inflammation, is a type of inflammation triggered by sensory nerve activation in skin. Certain natural substances that act on vanilloid receptors cause sensory nerves (C-fibers) to release inflammatory neuropeptides. In mouse skin, an edema response occurs rapidly upon application of a vanilloid receptor activator, such as capsaicin or resiniferatoxin (RTX).
Albino male CD-1 mice, 7-9 weeks old, were used. […] A 20-μL volume of Resiniferatoxin (0.05%) prepared in acetone was applied to the left ears (7 mice per treatment group). The right ear was not treated. Test agents were prepared in a 70% ethanol/30% propylene glycol vehicle and applied to the left ear (20 μL) immediately after resiniferatoxin challenge. The percent inhibition was calculated by comparing treatments to resiniferatoxin alone. Anti-neurogenic inflammation effects of compounds are evident as an inhibition of the increase in ear weight.

[3] abbreviates: Table 8, topical dose 1 % w/v in 100% ethanol, 50 uL, 30 minutes prior to Compound 48/80.
Where [4] appears, read: Table 2, topical dose 0.5 % w/v in 70% ethanol/30% propylene glycol, 20 μL to ear immediately after resiniferatoxin.

In the case of `CC(N/C(=N\C#N)Nc1ccncc1)C(C)(C)C` (stereo not drawn) [Pinacidil, reference compound], the “% Inhibition of Scratching” value in test [1] (setting [3]) was 17.03%.

Regarding `CC(O)CN(CCN(CC(C)O)CC(C)O)CC(C)O` (stereo not drawn) [Tetrahydroxypropyl ethylenediamine, N,N,N′,N′-Tetrakis(2-hydroxypropyl)ethylenediamine], in test [2] (Table 2, topical dose 1 % w/v, 20 μL to ear immediately after resiniferatoxin), the “% Inhibition of the Ear Edema” value is reported as 4.04%. Also, the “inhibition of the neurogenic inflammatory response to resiniferatoxin, in words” value (“inhibition … in words” below) in test [2] is recorded as “failed to significantly inhibit”. In addition, the “% Inhibition of Scratching” value was found to be 9.39% in test [1] (Table 1, topical dose 1 % w/v in 100% ethanol, 50 μL on shaved dorsal skin 30 minutes prior to Compound 48/80, scratches counted for 30 minutes) and 9.39% in test [1] (setting [3]). In addition, the “effect on Compound 48/80 scratching, in words” value in test [1] is recorded as “very weak to no inhibition”.

Turning to `[Cl-].[Na+]` [Sodium Chloride, reference compound], in test [2] (Table 3, topical dose 1 % w/v), the “% Inhibition of the Ear Edema” value was determined as 7.06%.

As for `[Ca+2].[Cl-].[Cl-]` [Calcium Chloride, reference compound], the “% Inhibition of the Ear Edema” value in test [2] (Table 3, topical dose 1 % w/v) was −3.24%.

With `O=C([O-])[O-].[K+].[K+]` [Potassium Carbonate], in test [2] (Table 4, topical dose 0.283 % w/v), the “% Inhibition of the Ear Edema” value was determined as 4.52%.

Regarding `Nc1cc(N2CCCCC2)nc(N)[n+]1[O-]` [Minoxidil, reference compound], the “% Inhibition of Scratching” value in test [1] (setting [3]) worked out at 8.42%.

`[Cl-].[K+]` [Potassium Chloride]: the “% Inhibition of the Ear Edema” value was 9.98% in test [2] (Table 3, topical dose 0.524 % w/v) and 9.98% in test [2] (Table 4, topical dose 0.524 % w/v).

`CCN(CC)CC(=O)Nc1c(C)cccc1C` [Lidocaine, reference compound]: in test [2] (setting [4]), the “% Inhibition of the Ear Edema” value worked out at 28.7%.

As for `CC(O)C(=O)[O-].[K+]` (stereo not drawn) [Potassium Lactate], the “% Inhibition of the Ear Edema” value in test [2] (Table 2, topical dose 0.206 % w/v, 20 μL to ear immediately after resiniferatoxin) was 13.52%; in test [2] (Table 4, topical dose 0.206 % w/v), 13.52%. The “inhibition … in words” value in test [2] is recorded as “failed to significantly inhibit”. For the same molecule, the “% Inhibition of Scratching” value in test [1] (Table 1, topical dose 0.206 % w/v in 100% ethanol, 50 μL, 30 minutes prior to Compound 48/80) is on record as −8.84%. Moreover, the “effect on Compound 48/80 scratching, in words” value in test [1] is reported as “very weak to no inhibition”.

With `CC(C)NCCN(CCNC(C)C)CCNC(C)C` [Tris[2-(isopropylamino)ethylamine], the “% Inhibition of the Ear Edema” value in test [2] (setting [4]) is recorded as 13.62%. For the same molecule, the “inhibition … in words” value in test [2] was “failed to significantly inhibit”.

For the molecule `CC(=O)[O-].[K+]` [Potassium Acetate], the “% Inhibition of the Ear Edema” value in test [2] (Table 4, topical dose 0.398 % w/v) is −2.89%.
